# Assay results reported in article PMC6770091, “P-Glycoprotein 1 Affects Chemoactivities of Resveratrol against Human Colorectal Cancer Cells” (Nutrients, 2019).
# Experiments:
# SW480 cells [1] = experiment: [3H]-resveratrol efflux measurement; assay type: in vitro ADME, human; settings: for Vi = % of Resveratrol Efflux . min^−1: after 10 min uptake of 30 µM [3H]-resveratrol
# Procedure: (§1) Resveratrol efflux was examined by incubating confluent cells in 6-well plates over 10 min with 30 µM tritiated resveratrol in complete medium at 37 °C. […] At the end of the incubation period, the labeled medium was removed and the cells were washed two times with PBS. Fresh medium (37 °C or 4 °C) was then quickly added to allow the cells to efflux tritiated resveratrol from 1 to 360 min. At the end of each time point, the cells were washed and lysed in NaOH 0.1 M, Na2CO3 2%, SDS 0.1%. The cell homogenates were transferred into flasks and cell-associated radioactivity was counted in a liquid scintillation analyzer.
# HT29 cells [2] = experiment: [3H]-resveratrol efflux measurement; assay type: in vitro ADME, human; settings: after 10 min uptake of 30 µM [3H]-resveratrol
# Procedure: as §1, with “analyzer. We evaluated 60 min area under curves (AUC) by integrating exponential regression curves of [^3H]-resveratrol time course accumulation between 0 and 60 min.” for “analyzer.”
# HCT116 cells [3] = experiment: [3H]-resveratrol efflux measurement; assay type: in vitro ADME, human; settings: after 10 min uptake of 30 µM [3H]-resveratrol
# Procedure: as §1, with “analyzer. We evaluated 60 min area under curves (AUC) by integrating exponential regression curves of [^3H]-resveratrol time course accumulation between 0 and 60 min.” for “analyzer.”
# SW620 cells [4] = experiment: [3H]-resveratrol efflux measurement; assay type: in vitro ADME, human; settings: after 10 min uptake of 30 µM [3H]-resveratrol
# Procedure: as §1, with “analyzer. We evaluated 60 min area under curves (AUC) by integrating exponential regression curves of [^3H]-resveratrol time course accumulation between 0 and 60 min.” for “analyzer.”
# MRP1 = molecular target: T1, MRP1 (Homo sapiens, UniProt P33527); experiment: [3H]-resveratrol efflux, BHK 21 vs BHK21-MRP1 overexpressing clone; assay type: in vitro ADME; settings: BHK 21/MRP1 vs control BHK 21, 30 µM [3H]-resveratrol, 37°C
# T1 construct: expressed in transfected cells; host or cells: BHK 21 (baby hamster kidney) stably transfected clone BHK21-MRP1, provided by Dr. Attilio Di Pietro
# T1 sequence (P33527 whole entry): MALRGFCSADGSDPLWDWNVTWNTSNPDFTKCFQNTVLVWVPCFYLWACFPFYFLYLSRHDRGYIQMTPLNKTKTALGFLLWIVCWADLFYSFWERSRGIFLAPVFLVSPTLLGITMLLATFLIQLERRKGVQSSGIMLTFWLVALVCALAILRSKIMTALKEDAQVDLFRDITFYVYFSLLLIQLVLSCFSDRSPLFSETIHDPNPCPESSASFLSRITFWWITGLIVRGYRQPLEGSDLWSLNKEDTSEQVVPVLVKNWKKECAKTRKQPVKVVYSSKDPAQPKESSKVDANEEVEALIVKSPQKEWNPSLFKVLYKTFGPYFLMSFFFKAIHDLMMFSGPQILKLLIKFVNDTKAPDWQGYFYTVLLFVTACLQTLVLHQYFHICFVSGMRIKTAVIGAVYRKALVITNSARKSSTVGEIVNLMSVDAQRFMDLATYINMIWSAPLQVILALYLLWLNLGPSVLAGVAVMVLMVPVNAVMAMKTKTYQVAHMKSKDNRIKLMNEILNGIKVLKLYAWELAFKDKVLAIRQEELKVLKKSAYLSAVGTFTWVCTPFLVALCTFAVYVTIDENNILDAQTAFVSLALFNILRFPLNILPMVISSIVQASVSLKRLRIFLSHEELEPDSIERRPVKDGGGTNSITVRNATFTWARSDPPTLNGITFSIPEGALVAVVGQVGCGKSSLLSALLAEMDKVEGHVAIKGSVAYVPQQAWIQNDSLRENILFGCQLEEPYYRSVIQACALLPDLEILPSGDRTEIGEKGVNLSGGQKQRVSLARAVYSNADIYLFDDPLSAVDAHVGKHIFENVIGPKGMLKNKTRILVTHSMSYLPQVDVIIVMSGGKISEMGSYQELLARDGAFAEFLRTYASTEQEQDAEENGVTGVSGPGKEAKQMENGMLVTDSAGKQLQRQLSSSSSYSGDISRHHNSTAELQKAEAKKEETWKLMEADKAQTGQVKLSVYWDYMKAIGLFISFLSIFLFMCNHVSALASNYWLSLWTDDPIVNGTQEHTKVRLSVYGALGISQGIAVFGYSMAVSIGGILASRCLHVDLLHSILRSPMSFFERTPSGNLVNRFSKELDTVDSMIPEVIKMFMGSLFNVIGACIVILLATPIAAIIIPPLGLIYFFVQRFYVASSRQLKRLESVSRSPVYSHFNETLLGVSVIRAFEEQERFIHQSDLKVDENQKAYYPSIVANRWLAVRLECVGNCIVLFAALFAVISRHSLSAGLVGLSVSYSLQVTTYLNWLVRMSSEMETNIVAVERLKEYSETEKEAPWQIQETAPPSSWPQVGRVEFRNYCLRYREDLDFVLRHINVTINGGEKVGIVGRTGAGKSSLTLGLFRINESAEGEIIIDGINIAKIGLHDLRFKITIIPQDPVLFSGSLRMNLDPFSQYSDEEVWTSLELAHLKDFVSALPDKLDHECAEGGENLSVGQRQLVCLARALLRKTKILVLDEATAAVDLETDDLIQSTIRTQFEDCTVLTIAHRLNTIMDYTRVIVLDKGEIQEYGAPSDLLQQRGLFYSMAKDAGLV
# Procedure: as §1, with “analyzer. We evaluated 60 min area under curves (AUC) by integrating exponential regression curves of [^3H]-resveratrol time course accumulation between 0 and 60 min.” for “analyzer.”
# BCRP = settings: human, not told, 30 µM
# Procedure: as §1, with “analyzer. We evaluated 60 min area under curves (AUC) by integrating exponential regression curves of [^3H]-resveratrol time course accumulation between 0 and 60 min.” for “analyzer.”
# MDR1 = settings: mouse, not told, 30 µM
# Procedure: as §1, with “analyzer. We evaluated 60 min area under curves (AUC) by integrating exponential regression curves of [^3H]-resveratrol time course accumulation between 0 and 60 min.” for “analyzer.”
# MRP2 = settings: human, 30 µM
# Procedure: as §1, with “analyzer. We evaluated 60 min area under curves (AUC) by integrating exponential regression curves of [^3H]-resveratrol time course accumulation between 0 and 60 min.” for “analyzer.”
# HT29 cells [5] = experiment: Cytotoxicity assay, crystal violet staining; assay type: cell-based; settings: Homo sapiens, HT-29, HT29, 72 h, read-out: IC50 (concentration inhibiting 50% of the tumor proliferation)
# Procedure: (§2) Cell lines were seeded into 96-well plates. After 24 h of culture, the cells were treated with increasing concentrations of resveratrol for 72 h. All control and treated cells received the same volume of ethanol (0.1%). After time of treatment, cells were harvested and the toxicities were evaluated by crystal violet staining. Briefly, after treatments cells were washed with PBS 1X, stained for 5 min with a crystal violet solution (0.5% (w/v) crystal violet in 25% (v/v) methanol), and then gently rinsed with water. Absorbances were read at 540 nm with a Biochrom Asys UVM 340 spectrophotometer, after the extraction of the dye by 0.1 M sodium citrate in 50% ethanol. The inhibitory concentrations 50% (IC50) were assessed by crystal violet staining after 72 h of treatment. IC50 values were calculated by a four-parameter non-linear regression with GraphPad Prismversion 6 software (San Diego, California, CA, USA). In some experiments, after 24 h of seeding, cells were treated with resveratrol (30 µM) for 48 h before crystal violet staining. All results were expressed as percentages of control values (vehicle alone).
# SW480 cells [6] = experiment: Cytotoxicity assay, crystal violet staining; assay type: cell-based; settings: Homo sapiens, SW480, 72 h, read-out: IC50 (concentration inhibiting 50% of the tumor proliferation)
# Procedure: as §2
# HCT116 cells [7] = experiment: Cytotoxicity assay, crystal violet staining; assay type: cell-based; settings: Homo sapiens, HCT-116, HCT116, 72 h, read-out: IC50 (concentration inhibiting 50% of the tumor proliferation)
# Procedure: as §2
# SW620 cells [8] = experiment: Cytotoxicity assay, crystal violet staining; assay type: cell-based; settings: Homo sapiens, SW-620, SW620, 72 h, read-out: IC50 (concentration inhibiting 50% of the tumor proliferation)
# Procedure: as §2
# [9] = system: colon carcinoma cells (all cell lines); experiment: [3H]-resveratrol efflux in presence of other ABC protein inhibitors; assay type: cell-based, human
smiles,measurement,setting,value
"Oc1ccc(/C=C/c2cc(O)cc(O)c2)cc1 [RSV, trans 3,5,4′ trihydroxystilbene]",Vi = % of Resveratrol Efflux . min^−1,"SW480 cells [1]; SW480, 4°C",4.7 % of Resveratrol Efflux . min^−1
same,Vi = % of Resveratrol Efflux . min^−1,"SW480 cells [1]; SW480, 37 °C",6.3 % of Resveratrol Efflux . min^−1
same,Vi = % of Resveratrol Efflux . min^−1,"HT29 cells [2]; HT29, 4°C",4.3 % of Resveratrol Efflux . min^−1
same,Vi = % of Resveratrol Efflux . min^−1,"HT29 cells [2]; HT29, 37 °C",5.9 % of Resveratrol Efflux . min^−1
same,Vi = % of Resveratrol Efflux . min^−1,"HCT116 cells [3]; HCT116, 4°C",2.6 % of Resveratrol Efflux . min^−1
same,Vi = % of Resveratrol Efflux . min^−1,"HCT116 cells [3]; HCT116, 37 °C",6.4 % of Resveratrol Efflux . min^−1
same,Vi = % of Resveratrol Efflux . min^−1,"SW620 cells [4]; SW620, 4°C",2.8 % of Resveratrol Efflux . min^−1
same,Vi = % of Resveratrol Efflux . min^−1,"SW620 cells [4]; SW620, 37 °C",5.7 % of Resveratrol Efflux . min^−1
same,effect of MRP1 overexpression on intracellular RSV level,MRP1,early slight effect
same,inhibition of RSV accumulation (AUC 0-60 min of intracellular RSV level) by transporter overexpression,BCRP,1.7 fold
same,inhibition of RSV accumulation (AUC 0-60 min of intracellular RSV level) by transporter overexpression,MDR1,1.7 fold
same,"AUC (0-60 min, intracellular RSV level) diminished between control cells and MRP2 overexpressing one",MRP2,1.2 fold
same,IC50,HT29 cells [5],~40 µM
same,IC50,SW480 cells [6],~70 µM
same,IC50,HCT116 cells [7],~25 µM
same,IC50,SW620 cells [8],~20 µM
"COc1ccc2c(c1)c(CC(=O)O)c(C)n2C(=O)c1ccc(Cl)cc1 [indomethacin, reference compound]",inhibition of the release of RSV,"SW480 cells [1]; SW480, inhibitor 20 µM pretreatment 10 min, 5 min efflux at 37 °C",1.8 fold
[O]=[V]([O-])([O-])[O-] [orthovanadate],effect on resveratrol retention,[9],enhance resveratrol retention
C[C@@H]1O[C@@H](O[C@H]2C[C@@H](O)[C@]3(CO)[C@H]4[C@H](O)C[C@]5(C)[C@@H](C6=CC(=O)OC6)CC[C@]5(O)[C@@H]4CC[C@]3(O)C2)[C@H](O)[C@H](O)[C@H]1O [ouabain],effect on resveratrol retention,[9],enhance resveratrol retention
CCCN(CCC)S(=O)(=O)c1ccc(C(=O)O)cc1 [probenicid],effect on resveratrol retention,[9],enhance resveratrol retention
O=c1c(O)c(-c2ccc(O)c(O)c2)oc2cc(O)cc(O)c12 [quercetin],effect on resveratrol retention,[9],enhance resveratrol retention
C=C[C@H]1C[N@@]2CC[C@H]1C[C@H]2[C@H](O)c1ccnc2ccc(OC)cc12 [quinine],effect on resveratrol retention,[9],enhance resveratrol retention
